This is an account of results in patent publication US7939534B2, “Certain chemical entities, compositions, and methods” (Cytokinetics, Inc., priority 2006, dated 2011).

For the assay, the target named is T1, chicken gizzard smooth muscle myosin subfragment-1 chemically crosslinked to either cardiac or skeletal actin (Gallus gallus, UniProt P10587).
T1 construct: chicken gizzard smooth muscle myosin subfragment-1; from tissue; host or cells: chicken gizzard
As to the kind of experiment: Dose dependent smooth muscle myosin ATPase modulation (pyruvate kinase/horseradish peroxidase/pyruvate oxidase-coupled ATPase assay). The format is biochemical. The settings on record: read-out: IC50 Arithmetic Mean. The protocol: In Vitro Model of Dose Dependent Smooth Muscle Myosin Atpase Modulation
Screening assays were performed using a pyruvate kinase and lactate dehydrogenase-coupled ATPase assay containing the following reagents: Potassium PIPES (50 mM ), MgCl2 (3 mM ), KCl (100 mM ), ATP (0.15 mM ), DTT (1 mM ), BSA (0.1 mg/ml), NADH (0.5 mM ), PEP (1.5 mM ), pyruvate kinase (4 U/ml), lactate dehydrogenase (8 U/ml), and antifoam (50 ppm) (concentrations expressed are final assay concentrations). The pH was adjusted to 6.80 at 22° C. by addition of potassium hydroxide. Lead optimization assays were performed with a more sensitive pyruvate kinase/horseradish peroxidase/pyruvate oxidase-coupled ATPase assay containing the following reagents: Potassium PIPES (12 mM ), MgCl2 (2 mM ), KCl (100 mM ), ATP (0.15 mM ), BSA (0.05 mg/ml), potassium phosphate (2 mM ), amplex red (0.1 mM ), PEP (0.1 mM ), pyruvate kinase (4 U/ml), horseradish peroxidase (0.5 U/ml), pyruvate oxidase (0.5 U/ml), and antifoam (50 ppm) (concentrations expressed are final assay concentrations). The pH was adjusted to 7.00 at 22° C. by addition of potassium hydroxide.
The protein components specific to this assay are chicken gizzard smooth muscle myosin subfragment-1 that has been chemically crosslinked to either cardiac or skeletal actin using an excess of 1-Ethyl-3-[3-dimethylaminopropyl]carbodiimide hydrochloride and N-hydroxysuccinimide. The exact concentration of the crosslinked smooth muscle myosin in the assay is determined empirically, by titration to achieve a desired rate of ATP hydrolysis. The concentration varies between protein preparations due to variations in the fraction of active molecules in each preparation.
Compound dose response assays are performed by first preparing a dilution series of test compound, each with an assay mixture containing potassium PIPES, MgCl2, KCl, ATP, BSA, potassium phosphate, amplex red, PEP, crosslinked smooth muscle actomyosin (subfragment-1), antifoam, and water. The assay is started by adding an equal volume of solution containing potassium Pipes, MgCl2, KCl, BSA, potassium phosphate, pyruvate kinase, horseradish peroxidase, pyruvate oxidase, antifoam, and water. ATP hydrolysis is monitored by measuring the fluorescence of amplex red (excitation at 480 nm, emission at 615 nm). The resulting dose response curve is fit by the 4 parameter equation y=Bottom+((Top−Bottom)/(1+((IC50/X)^Hill))). The IC50 is defined as the concentration at which ATPase activity is midway between the top and bottom of the dose response curve.

On to `NCc1ncccc1CNC(=O)c1ccc(N2CC[C@H](F)C2)nc1NCCc1cccc(F)c1` [Compound 38, (6-((3S)-3-fluoropyrrolidinyl)-2-{[2-(3-fluorophenyl)ethyl]amino}(3-pyridyl))-N-{[2-(aminomethyl)(3-pyridyl)]methyl}carboxamide], for which the half-inhibitory concentration (IC50) was 0.0882 µM.

Regarding `O=C(NCc1cccnc1)c1ccc(N2CCC(CCO)CC2)nc1NCCc1cccc(F)c1` [Compound 23, (2-{[2-(3-fluorophenyl)ethyl]amino}-6-[4-(2-hydroxyethyl)piperidyl](3-pyridyl))-N-(3-pyridylmethyl)carboxamide], the IC50 worked out at 0.471 µM.

For the molecule `O=C(NCc1cccnc1)c1ccc(N2CC[C@H](CO)C2)nc1NCCc1cccc(F)c1` [Compound 27, (6-[(3S)-3-(hydroxymethyl)pyrrolidinyl]-2-{[2-(3-fluorophenyl)ethyl]amino}(3-pyridyl))-N-(3-pyridylmethyl)carboxamide], the IC50 amounted to 0.465 µM.

As for `COC(=O)N1C=CC(c2ccc(C(=O)NCc3cccnc3)c(NCCc3cccc(F)c3)n2)CC1` (stereo not drawn) [Compound 72, methyl 4-(6-{[2-(3-fluorophenyl)ethyl]amino}-5-[N-(3-pyridylmethyl)carbamoyl]-2-pyridyl)-1,4,5,6-tetrahydropyridinecarboxylate], the IC50 was found to be 5.77 µM.

On to `O=C(NCc1cccnc1)c1ccc(N2CCOC(CO)C2)nc1NCCc1cccc(F)c1` (stereo not drawn) [Compound 119, (2-{[2-(3-fluorophenyl)ethyl]amino}-6-[2-(hydroxymethyl)morpholin-4-yl](3-pyridyl))-N-(3-pyridylmethyl)carboxamide], for which the half-maximal inhibitory concentration (IC50) came to 7.21 µM.

Turning to `O=C(NCc1cccnc1)c1ccc(N2CCC2)nc1NCCc1cccc(F)c1` [Compound 32, (6-azetidinyl-2-{[2-(3-fluorophenyl)ethyl]amino}(3-pyridyl))-N-(3-pyridylmethyl)carboxamide], the IC50 was determined as 1.17 µM.

Consider `O=C(NCc1cccnc1)c1ccc(N2CCCCC2)nc1NCCc1cccc(F)c1` [Compound 0, (2-{[2-(3-fluorophenyl)ethyl]amino}-6-piperidyl(3-pyridyl))-N-(3-pyridylmethyl)carboxamide], for which the IC50 amounted to 0.371 µM.

In the case of `NC[C@@H]1CCN(c2ccc(C(=O)NCc3cccnc3)c(NCCc3cccc(F)c3)n2)C1` [Compound 11, (6-[(3S)-3-(aminomethyl)pyrrolidinyl]-2-{[2-(3-fluorophenyl)ethyl]amino}(3-pyridyl))-N-(3-pyridylmethyl)carboxamide], the half-inhibitory concentration (IC50) turned out to be 16.9 µM.

As to `COC[C@@H]1CCCN1c1ccc(C(=O)NCc2cccnc2)c(NCCc2cccc(F)c2)n1` [Compound 108, (6-[(2S)-2-(methoxymethyl)pyrrolidinyl]-2-{[2-(3-fluorophenyl)ethyl]amino}(3-pyridyl))-N-(3-pyridylmethyl)carboxamide], the IC50 amounted to 67.3 µM.

Take `O=C(O)CC1CCN(c2ccc(C(=O)NCc3cccnc3)c(NCCc3cccc(F)c3)n2)C1` (stereo not drawn) [Compound 95, 2-[1-(6-{[2-(3-fluorophenyl)ethyl]amino}-5-[N-(3-pyridylmethyl)carbamoyl]-2-pyridyl)pyrrolidin-3-yl]acetic acid]: the half-maximal inhibitory concentration (IC50) was 5.6 µM.

`N#Cc1cc(C(=O)NCc2cccnc2)c(NCCc2cccc(F)c2)nc1N1CCCC1` [Compound 49, (5-cyano-2-{[2-(3-fluorophenyl)ethyl]amino}-6-pyrrolidinyl(3-pyridyl))-N-(3-pyridylmethyl)carboxamide]: the half-maximal inhibitory concentration (IC50) was 0.165 µM.

As for `O=C(NCc1cccnc1)c1ccc(N2CCCC2)nc1NCCc1cccc(F)c1` [Compound 16, (2-{[2-(3-fluorophenyl)ethyl]amino}-6-pyrrolidinyl(3-pyridyl))-N-(3-pyridylmethyl)carboxamide], the IC50 was found to be 0.131 µM.

Turning to `O=C(NCc1cccnc1)c1ccc(C2=CCCCC2)nc1NCCc1cccc(F)c1` [Compound 67, (6-cyclohex-1-enyl-2-{[2-(3-fluorophenyl)ethyl]amino}(3-pyridyl))-N-(3-pyridylmethyl)carboxamide], the half-maximal inhibitory concentration (IC50) stood at 0.117 µM.

For the molecule `COC(=O)N1CCN=C1c1ccc(C(=O)NCc2cccnc2)c(NCCc2cccc(F)c2)n1` [Compound 50, methyl 2-(6-{[2-(3-fluorophenyl)ethyl]amino}-5-[N-(3-pyridylmethyl)carbamoyl]-2-pyridyl)-2-imidazolinecarboxylate], the IC50 turned out to be 21.2 µM.

As to `CC(=O)NC1CCN(c2ccc(C(=O)NCc3cccnc3)c(NCCc3cccc(F)c3)n2)C1` (stereo not drawn) [Compound 118, N-[1-(6-{[2-(3-fluorophenyl)ethyl]amino}-5-[N-(3-pyridylmethyl)carbamoyl]-2-pyridyl)pyrrolidin-3-yl]acetamide], the IC50 stood at 20.7 µM.

As to `CC(C)(C)OC(=O)N1CCC[C@@H]1CNC(=O)c1cc(F)c(N2CCCC2)nc1NCCc1cccc(F)c1` [Compound 80, tert-butyl (2R)-2-{[(5-fluoro-2-{[2-(3-fluorophenyl)ethyl]amino}-6-pyrrolidinyl(3-pyridyl))carbonylamino]methyl}pyrrolidinecarboxylate], the concentration for half-maximal inhibition (IC50) was 6.86 µM.

As for `O=C(NCc1cccnc1)c1ccc(N2CC(O)CCC2=O)nc1NCCc1cccc(F)c1` (stereo not drawn) [Compound 20, (2-{[2-(3-fluorophenyl)ethyl]amino}-6-(5-hydroxy-2-oxopiperidyl)(3-pyridyl))-N-(3-pyridylmethyl)carboxamide], the concentration for half-maximal inhibition (IC50) was 29.7 µM.

Consider `CN1CCN(c2ccc(C(=O)NCc3cccnc3)c(NCCc3cccc(F)c3)n2)CC1` [Compound 22, (2-{[2-(3-fluorophenyl)ethyl]amino}-6-(4-methylpiperazinyl)(3-pyridyl))-N-(3-pyridylmethyl)carboxamide], for which the IC50 stood at 59.9 µM.

Take `O=C(NCc1cccnc1)c1cc(Cl)c(N2CCCC2)nc1NCCc1cccc(F)c1` [Compound 48, (5-chloro-2-{[2-(3-fluorophenyl)ethyl]amino}-6-pyrrolidinyl(3-pyridyl))-N-(3-pyridylmethyl)carboxamide]: the half-inhibitory concentration (IC50) is 0.234 µM.

With `CC(C)(C)OC(=O)NC1CCN(c2ccc(C(=O)NCc3cccnc3)c(NCCc3cccc(F)c3)n2)C1` (stereo not drawn) [Compound 91, (tert-butoxy)-N-[1-(6-{[2-(3-fluorophenyl)ethyl]amino}-5-[N-(3-pyridylmethyl)carbamoyl](2-pyridyl))pyrrolidin-3-yl]carboxamide], the IC50 stood at 18.5 µM.

As to `COC(=O)N[C@@H]1CCN(c2ccc(C(=O)NCc3cccnc3)c(NCCc3cccc(F)c3)n2)C1` [Compound 44, N-[(3R)-1-(6-{[2-(3-fluorophenyl)ethyl]amino}-5-[N-(3-pyridylmethyl)carbamoyl](2-pyridyl))pyrrolidin-3-yl]methoxycarboxamide], the half-inhibitory concentration (IC50) turned out to be 4.5 µM.

Turning to `COC(=O)N1CC=C(c2ccc(C(=O)NCc3cccnc3)c(NCCc3cccc(F)c3)n2)CC1` [Compound 61, methyl 4-(6-{[2-(3-fluorophenyl)ethyl]amino}-5-[N-(3-pyridylmethyl)carbamoyl]-2-pyridyl)-1,2,5,6-tetrahydropyridinecarboxylate], the IC50 came to 0.1 µM.

On to `CS(=O)(=O)N1CC=C(c2ccc(C(=O)NCc3cccnc3)c(NCCc3cccc(F)c3)n2)CC1` [Compound 83, (2-{[2-(3-fluorophenyl)ethyl]amino}-6-[1-(methylsulfonyl)(4-1,2,5,6-tetrahydropyridyl)](3-pyridyl))-N-(3-pyridylmethyl)carboxamide], for which the half-maximal inhibitory concentration (IC50) stood at 6.4 µM.

For `CNC(=O)CNC(=O)c1ccc(N2CCCCC2)nc1NCCc1cccc(F)c1` [Compound 106, 2-[(2-{[2-(3-fluorophenyl)ethyl]amino}-6-piperidyl(3-pyridyl))carbonylamino]-N-methylacetamide], the IC50 worked out at 1.12 µM.

Turning to `O=C(NCc1cccnc1)c1ccc(N2CCNCC2=O)nc1NCCc1cccc(F)c1` [Compound 25, (2-{[2-(3-fluorophenyl)ethyl]amino}-6-(2-oxopiperazinyl)(3-pyridyl))-N-(3-pyridylmethyl)carboxamide], the IC50 was 70.8 µM.

With `N#CN1CCN=C1c1ccc(C(=O)NCc2cccnc2)c(NCCc2cccc(F)c2)n1` [Compound 51, (6-(1-cyano(2-imidazolin-2-yl))-2-{[2-(3-fluorophenyl)ethyl]amino}(3-pyridyl))-N-(3-pyridylmethyl)carboxamide], the IC50 was found to be 0.435 µM.

Turning to `CN(C)C(=O)c1ccc(N2CCCCC2=O)nc1NCCc1cccc(F)c1` [Compound 26, (2-{[2-(3-fluorophenyl)ethyl]amino}-6-(2-oxopiperidyl)(3-pyridyl))-N,N-dimethylcarboxamide], the half-maximal inhibitory concentration (IC50) came to 53.4 µM.
